# Entries after “also recorded” stand apart in the source; their conditions may differ.
# Experiments:
# [1] = system: Lgr5hi ISCs combined with Paneth cells; test: Organoid formation of Lgr5hi ISCs cocultured with Paneth cells from treated mice; type: in vivo; conditions: for organoid formation of ISCs combined with Paneth cells from rapamycin-treated mice vs vehicle/AL Paneth cells: n=3-5, FIG. 3l, FIG. 13c
# Source text: (§1) Mice were housed in the Unit for Laboratory Animal Medicine at the Whitehead Institute for Biomedical Research. Lgr5-EGFP-IRES-CreERT2 mice (Strain name: B6.129P2-Lgr5tm1(cre/ERT2)Cle/J, Stock Number: 008875) were purchased from Jackson Laboratories. UbiquitinC-CreERT2 mice were obtained from the Jackson Laboratory (Strain Name: B6; 129S-Tg(UBC-cre/ERT2)1Ejb/J, Stock Number: 007001). Rictor floxed mice were generated as described in^27 and backcrossed to C57BL/6 for at least 6 generations. TSC1^loxp/loxp mice were the generous gift of D. Kwiatkowski (Harvard Medical School) and backcrossed to C57BL/6 for at least 6 generations. Rosa26-CreERT2 mice (Rosa26 or R26) were obtained from the Jackson Laboratory (Strain 15 Name: B6.129-Gt(ROSA)26Sor^iml(cre/ERT2)Tyj/J, Stock Number 008463). CR was achieved by providing individual or paired mice a daily portion of a chow diet fortified with vitamins and minerals amounting to 60% of the daily food intake of their ad libitum counterparts^20. All adult mice used in CR experiments were between the ages of 10 to 24 weeks and were sacrificed prior to their daily feeding. Rictor or TSC1 was excised by treatment with tamoxifen suspended in corn or sunflower seed oil (Spectrum) at a concentration of 10 mg/mL, and 200 μl per 25 g of body weight was injected intraperitoneally into mice once daily for 5-7 days. […] Mice were allowed to recover for at least 7 days after the last tamoxifen injection prior to any experiments. In vivo fate mapping in Lgr5-EGFP-IRES-reERT2; Rosa26loxpstoploxp-LacZ compound mice was done with a single injection of tamoxifen given at 200 μl per 25 g. As described previously^28, Rapamycin (LC Laboratories) was administered by intraperitoneal injection for 7 to 28 consecutive doses at 4 mg/kg. It was reconstituted in absolute ethanol at 10 mg/ml and diluted in 5% Tween-80 (Sigma) and 5% PEG-400 (Hampton Research) before injection. The final volume of all injections was 200 μl. Regular insulin (Lilly) was administered at 0.75 U/kg diluted in PBS 20 minutes prior to sacrificing fasted mice.
# Small intestines were removed and the fat/mesentery was dissected away. The intestinal lumen was washed with ice cold PBS (Mg—/Ca—) using a 18 G feeding needle (Roboz FN-7905) until the intestines appeared white/pink. They were then opened longitudinally. The mucous was removed by gently rubbing the intestine between fingers in cold PBS. The intestines were cut into 3 to 5 mm fragments and placed into 50 ml conical tubes that were fill with ice cold 30 ml of PBS (Mg—/Ca—)/EDTA (10 mM). The samples were incubated and shook intermittently on ice for 30 minutes continuously discarding and replacing (at least 3 times) the supernatant. The fragments were then continually resuspended with ice cold 30 ml PBS (Mg—/Ca—)/EDTA (10 mM) and intermittently shook on ice for 10 minutes, discarding the supernatant again for 3 times. The fragments were resuspended again with ice cold 30 ml PBS (Mg—/Ca—)/EDTA (10 mM) and incubated and intermittently shook while waiting on ice for 20 to 40 minutes. The samples were then triturated with a 10 ml pipette 1 to 2 times, and the contents were filtered twice through a 70-μm mesh (BD Falcon) into a 50 ml conical tube to remove villous material and tissue fragments. […] Crypts were removed from this step for crypt culture experiments and embedded in matrigel with crypt culture media. For ISC isolation, the crypt suspensions were centrifuged for 5 minutes at 250 g (4 C or room temperature). The pellets were gently resuspended in 1.0 ml of undiluted TrypLE Express (Invitrogen)+120 μl of DNase I (10 U/μl, Roche) and transferred to 15 ml conical tubes. The samples were incubated in a 32° C. water bath for 1.25 to 2 minutes, were not titurated, and were then placed on ice. 12 ml of cold SMEM was added to each sample and were gently triturated twice. The samples were then centrifuged for 5 minutes at 250 g.
# [2] = biological target: T1, mTORC1 (Mus musculus, UniProt P26883+Q9JLN9); test: Phospho-S6 (P-S6) immunostain as mTORC1 reporter in intestine / sorted Paneth cells; type: in vivo, mice; conditions: overnight fasted mice treated before refeeding 5 hours, FIG. 2a
# T1 construct: from tissue; host or cells: mouse small intestine sections, isolated crypts and sorted Paneth cells
# Source text: as §1, with “mice. […]” for “mice.”
# [3] = system: Bst-1; test: Bst-1 protein expression by immunoblots of crypts and immunostains of Paneth cells; type: in vivo, mice; conditions: FIG. 4c
# Description: Tissues were fixed in 10% formalin, paraffin embedded, and sectioned. Antigen retrieval was performed with Borg Decloaker RTU solution (Biocare Medical) in a pressurized Decloaking Chamber (Biocare Medical) for 3 minutes. Antibodies: rat anti-BrdU (1:2000; Abeam 6326), rabbit phospho-S6 Ser235/236 (1:500, CST 4858), rabbit cleaved caspase 3 (1:500; CST 9664), rabbit chromogranin A (1:3000, Abeam 15160), rabbit Lysozyme (1:2000; Thermo), rabbit Bst-1 (1:1000, Abeam 74301) and mouse Bst-1 (1:100 to 500, BD Pharmingen). For mouse Bst-1, the M.O.M (mouse on mouse) kit was used according to the manufacturer's instructions (Vector labs PK-2200). Biotin conjugated secondary donkey anti-rabbit or rat antibodies were used from Jackson ImmunoResearch. The Vectastain Elite ABC immunoperoxidase detection kit (Vector Labs PK-6101) followed by Dako Liquid DAB+ Substrate (Dako) was used for visualization. For immunofluorescence Alexa Fluor 568 secondary antibodies (Invitrogen) were used. All antibody incubations were performed with Common Antibody Diluent (Biogenex).
# Antibodies: rabbit anti phospho-T389 S6K1, phospho-S240/244 S6, S6K1, and S6 from CST; rabbit Bst-1 (ab74301) from Abeam; mouse anti_-actin (clone AC-15) from Sigma. […] Proteins extracts were denatured by the addition of sample buffer, boiled for […], resolved by SDS-PAGE, and analyzed by immunoblotting.
compound,measurement,setting,value
"CO[C@H]1C[C@@H]2CC[C@@H](C)[C@@](O)(O2)C(=O)C(=O)N2CCCC[C@H]2C(=O)O[C@H]([C@H](C)C[C@@H]2CC[C@@H](O)[C@H](OC)C2)CC(=O)[C@H](C)/C=C(\C)[C@@H](O)[C@@H](OC)C(=O)[C@H](C)C[C@H](C)/C=C/C=C/C=C/1C [Rapamycin, sirolimus]","organoids per AL Lgr5hi ISC mixed with Paneth cells from treated mice, increase vs vehicle",[1]; 4 mg/kg,~2 fold
same,effect of combination of CR and rapamycin in ISC-Paneth cell coculture,"[1]; CR+R treated mice, FIG. 3j",non-additive
same,direct effect on ISC function (clonogenicity of ISCs from treated vs vehicle mice),[1]; FIG. 3l,no direct effect on ISC function
same,secondary organoid bodies derived from rapamycin-treated Paneth cells vs vehicle,[1]; FIG. 3m,larger and more complex
same,stability of augmented capacity of Paneth cells to promote ISC self-renewal,[1]; Paneth cells placed in nutrient rich media that activates mTORC1,maintain their augmented capacity to promote ISC self-renewal
same,organoid formation of ISCs combined with Paneth cells from rapamycin-treated mice vs vehicle/AL Paneth cells,[1],significantly increased
same,organoid formation of ISCs combined with Paneth cells from rapamycin-treated mice vs vehicle/AL Paneth cells,[1]; listed as rapamycin,prominent increase; also recorded: significantly increased
same,mTORC1 activation (P-S6) in Paneth cells by feeding,[2],blocked this activation
same,Bst-1 protein expression,"[3]; crypts (immunoblots) and Paneth cells (immunostains) of treated mice, d",increased
same,SDS-PAGE mobility of Bst-1,[3]; immunoblots of crypts,affected the SDS-PAGE mobility of Bst-1

# Reference: US9532997B2, “Compositions and methods for promoting intestinal stem cell function” (Whitehead Institute for Biomedical Research, priority 2012, dated 2017)
